Read-outs that look alike come from different tables or passages of the source. Values belong to the compound of their own block, whether it stands above or below them.
Columns and labels:
[1] = test system: crude mushroom tyrosinase (MT) extract; assay: DOPA oxidation (dopachrome, 475 nm) assay with crude MT extract, with 0.1% SDS; assay type: biochemical, White button mushrooms
Protocol: (§1) White button mushrooms were purchased from local stores and blended in 100 mM sodium phosphate (pH 6.0) containing 1 mM EDTA, 1 mM PMSF, 5 mM ascorbic acid and 1 M sucrose. The homogenates were filtered and stored at −15 °C in small aliquots. Commercial mushroom tyrosinase. Mushroom tyrosinase was dissolved in the above buffer without ascorbic acid at 2 mg dry weight/mL and stored at 5 °C in small aliquots.
(§2) Each one mL assay contained a final concentration of 100 mM sodium phosphate (pH 6.5) and 2 mM DOPA. Crude, commercial or partially purified tyrosinase was added to initiate the reaction. […] Rates were determined from the linear portion of the absorbance vs. time curves. Crude enzyme was use at a concentration of 0.1 units (8.4 μg protein) per mL in the assay and assayed in the presence of 0.1% SDS. Commercial tyrosinase was used at a concentration of 0.038 units (3.3 μg protein) per mL in the assay. The purified enzyme was used at a concentration of 0.0067 units (0.58 μg protein) per mL in the assay.
(§3) Various amounts of inhibitors were added into assays to determine a range of inhibitors needed to encompass the IC50 value. Then assays were repeated within this range of inhibitor concentrations. Rates were determined as above. […] For the crude and commercial MT, experiments were repeated at least twice and the average IC50 value reported. Because of the limited amount of purified tyrosinase, not all experiments could be repeated twice. In experiments requiring DMSO to dissolve the inhibitor, control assays contained the assay mixture with DMSO but minus inhibitor. Final DMSO concentrations were 5% or less in the assays.

[2] = target: commercial mushroom tyrosinase (MT) (Agaricus bisporus, UniProt C7FF04); assay: DOPA oxidation (dopachrome, 475 nm) assay with commercial MT; assay type: biochemical; details: for IC50: read-out: IC50 Commer. MT
Chain of commercial mushroom tyrosinase (MT) (C7FF04 1-392): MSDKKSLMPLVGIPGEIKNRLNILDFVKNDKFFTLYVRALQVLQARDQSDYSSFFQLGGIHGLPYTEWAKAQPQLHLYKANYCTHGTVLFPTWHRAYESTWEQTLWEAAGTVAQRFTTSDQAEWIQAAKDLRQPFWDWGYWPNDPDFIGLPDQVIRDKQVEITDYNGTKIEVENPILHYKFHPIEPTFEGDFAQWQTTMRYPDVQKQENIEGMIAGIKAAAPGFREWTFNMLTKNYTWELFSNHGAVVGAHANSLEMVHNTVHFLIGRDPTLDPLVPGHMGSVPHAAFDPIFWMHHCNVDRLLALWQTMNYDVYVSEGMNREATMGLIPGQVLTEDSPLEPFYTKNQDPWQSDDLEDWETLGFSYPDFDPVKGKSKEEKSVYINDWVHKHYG
Chain of commercial mushroom tyrosinase (MT) (G1K3P4 entry or part of it, further chain): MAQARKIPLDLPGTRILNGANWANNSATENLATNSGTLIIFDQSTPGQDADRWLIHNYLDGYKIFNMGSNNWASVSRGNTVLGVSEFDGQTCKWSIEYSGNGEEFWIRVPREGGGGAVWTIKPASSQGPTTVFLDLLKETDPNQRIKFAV
Protocol: Commercial mushroom tyrosinase was purchased from Worthington Biochemical Corp. (Lakewood, NJ, USA). Substrates and inhibitors were obtained from Sigma-Aldrich (St. Louis, MO, USA). Anisaldehyde was obtained form J.T. Baker Chemical Co. (Phillipsburg, NJ, USA). Dimethyl sulfoxide (DMSO) was reagent grade from Sigma-Aldrich (St. Louis, MO, USA).
as §1, §2, §3

[3] = target: purified mushroom tyrosinase (MT) (Agaricus bisporus, UniProt C7FF04); assay: DOPA oxidation (dopachrome, 475 nm) assay with partially purified commercial MT; assay type: biochemical
Chain of purified mushroom tyrosinase (MT) (C7FF04 1-392): as the sequence (C7FF04 1-392) above
Chain of purified mushroom tyrosinase (MT) (G1K3P4 entry or part of it, further chain): as the sequence (G1K3P4 entry or part of it, further chain) above
Protocol: as §2, §3

[4] = test system: mushroom tyrosinase (crude, commercial and purified MT); assay: DOPA oxidation assay, statements pooled over crude, commercial and purified MT; assay type: biochemical
Protocol: Each one mL assay contained a final concentration of 100 mM sodium phosphate (pH 6.5) and 2 mM DOPA. Crude, commercial or partially purified tyrosinase was added to initiate the reaction. Oxidation of DOPA into dopachrome was monitored at 475 nm. One unit of activity was defined as 1 μmole dopachrome formed per min per ml enzyme using an extinction coefficient of 3600 M^−1 cm^−1. Rates were determined from the linear portion of the absorbance vs. time curves. Crude enzyme was use at a concentration of 0.1 units (8.4 μg protein) per mL in the assay and assayed in the presence of 0.1% SDS. Commercial tyrosinase was used at a concentration of 0.038 units (3.3 μg protein) per mL in the assay. The purified enzyme was used at a concentration of 0.0067 units (0.58 μg protein) per mL in the assay.
Various amounts of inhibitors were added into assays to determine a range of inhibitors needed to encompass the IC50 value. Then assays were repeated within this range of inhibitor concentrations. Rates were determined as above. […] The concentration of inhibitor needed to inhibit 50% of the tyrosinase activity was extrapolated from % activity vs. [inhibitor] curves. For some inhibitors, we also used Statistical Data Analysis Software (SDAS, version 2008A) using an exponential equation to obtain a best fit curve and then to calculate IC50 values. For the crude and commercial MT, experiments were repeated at least twice and the average IC50 value reported. Because of the limited amount of purified tyrosinase, not all experiments could be repeated twice. In experiments requiring DMSO to dissolve the inhibitor, control assays contained the assay mixture with DMSO but minus inhibitor. Final DMSO concentrations were 5% or less in the assays.

mushroom tyrosinase = details: cited from earlier work

Compound: O=S(=O)([O-])[O-].[Zn+2] [ZnSO4]
Inhibition of crude MT ([1]; at 1 mM): none@1 mM
Inhibition of commercial MT ([2]; at 1 mM): none@1 mM
Inhibition of purified MT ([3]; at 1 mM): none@1 mM
Inhibition of MT ([4]; concentrations up to 1 mM): no inhibition
IC50 (mushroom tyrosinase; assay coupling DOPA oxidation to thymol blue coloration, read-out: Reported IC50 Values): 50 µM

Compound: Oc1ccc(O)cc1 [hydroquinone]
Concentration up to which crude MT is activated ([1]; 2 mM DOPA): ≤ 100 µM
Effect on crude MT activity ([1]; 2 mM DOPA): activates ^d
Effect on commercial MT activity [2]: activates ^e
Effect on purified MT activity [3]: activates ^f
IC50 (mushroom tyrosinase; read-out: Reported IC50 Values): 26 µM

IC50 Crude MT ([1]; 2 mM DOPA, pH 6.5, 0.1% SDS): >10 mg/mL ^g
IC50 Commer. MT ([2]; 2 mM DOPA, pH 6.5): >20 mg/mL ^h
IC50 Purified MT ([3]; 2 mM DOPA, pH 6.5): >20 mg/mL ^i
Compound: lysozyme
Reported inhibition of MT (mushroom tyrosinase; MT and lysozyme incubated for one hour before assaying): 30%
Reported IC50 value (mushroom tyrosinase): 4.6 µg/mL
Reported inhibition of MT (mushroom tyrosinase; mixing MT with lysozyme just before assaying): 8%
IC50 (mushroom tyrosinase; read-out: Reported IC50 Values): 0.32 µM

IC50 ([1]; 2 mM DOPA, pH 6.5, 0.1% SDS): 5.8 µM
Compound: CCCCCCc1ccc(O)cc1O [4-HR, 4-hexylresorcinol]
IC50 (mushroom tyrosinase; read-out: Reported IC50 Values): 0.85 µM

IC50 ([1]; 2 mM DOPA, pH 6.5, 0.1% SDS): 625 µM
Compound: O=C(CCc1ccc(O)cc1)c1c(O)cc(O)cc1O[C@@H]1O[C@H](CO)[C@@H](O)[C@H](O)[C@H]1O [phloridzin]
IC50 (mushroom tyrosinase; read-out: Reported IC50 Values): 110 µM

Inhibition of crude MT ([1]; to 2 mM): NI to 2 mM
Inhibition of commercial MT ([2]; to 2 mM): NI to 2 mM
Inhibition of purified MT ([3]; to 2 mM): NI to 2 mM
Inhibition of tyrosinase ([4]; up to 2 mM): relatively little inhibition
Compound: CS(C)(=O)=O [dimethyl sulfone]

Compound: 4,4’-dihydroxy-biphenyl [biphenol]
IC50 ([1]; 2 mM DOPA, pH 6.5, 0.1% SDS): 50 µM
IC50 ([2]; 2 mM DOPA, pH 6.5): 10 µM
Concentration beyond which purified MT activity increases ([3]; 2 mM DOPA): > 100 µM
IC50 ([3]; 2 mM DOPA, pH 6.5): 67 µM
IC50 (mushroom tyrosinase; tyrosine as substrate, read-out: Reported IC50 Values): 1.9 µM

IC50 ([1]; 2 mM DOPA, pH 6.5, 0.1% SDS): 46 µM
Compound: Cn1cc[nH]c1=S [methimazole]
IC50 (mushroom tyrosinase; read-out: Reported IC50 Values): 200 µM

IC50 ([1]; 2 mM DOPA, pH 6.5, 0.1% SDS): 36 µM
Compound: O=c1cc(CO)occ1O [kojic acid]

Compound: N.N.S.S.[S]=[Mo]=[S] [ATTM, ammonium tetrathiomolybdate]
IC50 ([1]; 2 mM DOPA, pH 6.5, 0.1% SDS): 3.4 µM
IC50 ([2]; 2 mM DOPA, pH 6.5): 3.3 µM
IC50 (mushroom tyrosinase; read-out: Reported IC50 Values): 2 µM

Compound: CSC [dimethyl sulfide]
Inhibition of crude MT ([1]; to 500 μM): NI to 500 μM
Inhibition of commercial MT ([2]; to 500 μM): NI to 500 μM
Inhibition of purified MT ([3]; to 500 μM): NI to 500 μM
Inhibition of MT ([4]; up to 500 μM, any of the MT samples): Little to no inhibition

Compound: [Cl-].[Na+] [NaCl]
IC50 ([1]; 2 mM DOPA, pH 6.5, 0.1% SDS): 65000 µM
IC50 (mushroom tyrosinase; DOPA as substrate, read-out: Reported IC50 Values): 25000 µM

IC50 ([1]; 2 mM DOPA, pH 6.5, 0.1% SDS): 0.39 µM
Compound: O=c1cccccc1O [tropolone]
IC50 (mushroom tyrosinase; read-out: Reported IC50 Values): 0.4 µM

IC50 ([1]; 2 mM DOPA, pH 6.5, 0.1% SDS): 70 µM
Compound: O=c1ccc2cc(O)c(O)cc2o1 [esculetin]

Compound: COc1ccc(C=O)cc1 [anisaldehyde]
IC50 ([1]; 2 mM DOPA, pH 6.5, 0.1% SDS): 1000 µM
IC50 ([4]; 2 mM DOPA, read-out: IC50, range between crude, commercial and purified MT): 1 to 1.8 mM
IC50 (mushroom tyrosinase; read-out: Reported IC50 Values): 160 µM

Compound: COc1ccc(C(=O)O)cc1 [anisic acid]
IC50 (mushroom tyrosinase; read-out: Reported IC50 value): 680 µM

From paper PMC2769143, “Variations in IC50 Values with Purity of Mushroom Tyrosinase” (International Journal of Molecular Sciences, 2009)
